Assays:
[1] = biological target: human autotaxin (ATX) (Homo sapiens (Human), UniProt Q13822); experiment: Human autotaxin assay (choline release from LPC, Hep3B conditioned media); format: biochemical; conditions: concentrated conditioned media from Hep3B cells, LPC substrate
Method: ATX activity is assayed in concentrated conditioned media from Hep3B human hepatocellular carcinoma cells by measuring the amount of choline released from the substrate, lysophosphatidylcholine (LPC) as it is cleaved to LPA. Conditioned media is collected from confluent Hep3B cells and concentrated 20-fold using Centriprep-30 filter devices (Millipore). […] 100 μl of a color mix containing 4.5 mM 4-aminoantipyrine, 2.7 mM N-ethyl-N-(2-hydroxy-3-sulfopropyl)-m-toluidine, 21 units/ml horseradish peroxidase and 3 units/ml choline oxidase in 50 mM Tris, pH 8, 4.5 mM MgCl2 is added and the incubation continued for 15 minutes at room temperature before reading the absorbance at 555 nm.

[2] = rat male reproductive tissue toxicity study; format: in vivo; conditions: for decreases in the testes weight (as a percentage of body weight): dosed at 300 mpk PO for 5 days; for decreases in testes weight: rat male reproductive tissue toxicity study
Method: In some embodiments, male reproductive tissue toxicity can be assessed in suitable in vivo models. In some embodiments, male reproductive tissue toxicity is assessed by monitoring any decreases in the testes weight and/or epididymis weight.

| IC50 [1] [nM] | SMILES | decreases in the testes weight (as a percentage of body weight) [2] | decreases in testes weight [2] |
| --- | --- | --- | --- |
| < 500 | CC1(C)c2c(n(Cc3ccc(F)cc3)c3ccccc23)CN2C(=O)N(CCC(=O)O)C(=O)C21 (centres unmarked) [Compound A11, 3-(6-(4-fluorobenzyl)-11,11-dimethyl-1,3-dioxo-5,6,11,11a-tetrahydro-1H-imidazo[1′,5′:1,6]pyrido[3,4-b]indol-2(3H)-yl)propanoic acid] | – | – |
| > 1000 | CC12Cc3c(n(Cc4ccc(F)cc4)c4ccccc34)CN1C(=O)N(CCC(=O)O)C2=O (centres unmarked) [Compound A113, 3-(6-(4-fluorobenzyl)-11a-methyl-1,3-dioxo-11,11a-dihydro-1H-imidazo[1′,5′:1,6]pyrido[3,4-b]indol-2(3H,5H,6H)-yl)propanoic acid] | – | – |
| < 500 | CC1(C)c2c(n(Cc3ccc(F)cc3)c3ncccc23)CN2C(=O)N(CCC(=O)O)C(=O)C21 (centres unmarked) [Compound C11, 3-{8-[(p-fluorophenyl)methyl]-16,16-dimethyl-12,14-dioxo-6.8.11.13-tetrazatetracyclo[7.7.0.02,7.011,15]hexadeca-1(9),2(7),3,5-tetraene-13-yl}propionic acid] | – | – |
| < 500 | O=C1NC(=O)N2Cc3c(c4cccnc4n3Cc3ccc(F)cc3)CC12 (centres unmarked) [Compound C109] | – | – |
| < 500 | CC(C)(CN1C(=O)C2Cc3c(n(Cc4ccc(F)cc4)c4ncccc34)CN2C1=O)C(=O)O (centres unmarked) [Compound C111, 3-{8-[(p-fluorophenyl)methyl]-12,14-dioxo-6.8.11.13-tetrazatetracyclo[7.7.0.02,7.011,15]hexadeca-1(9),2(7),3,5-tetraene-13-yl}-2,2-dimethyl propionic acid] | – | – |
| < 500 | O=C(O)CCN1C(=O)C2Cc3c(n(Cc4ccc(F)cc4)c4ncccc34)CN2C1=O (centres unmarked) [Compound C114, 3-{8-[(4-fluorophenyl)methyl]-12,14-dioxo-6.8.11.13-tetraazatetracyclo[7.7.0.02, 7.011,15]hexadeca-1(9),2(7),3,5-tetraen-13-yl}propionic acid] | – | – |
| > 1000 | O=C(O)CCN1C(=O)[C@@H]2Cc3c(n(Cc4ccc(F)cc4)c4ccccc34)CN2C1=S [Compound E1, (S)-3-(6-(4-fluorobenzyl)-1-oxo-3-thioxo-5,6,11,11a-tetrahydro-1H-imidazo[1′,5′:1,6]pyrido[3,4-b]indol-2(3H)-yl)propanoic acid] | – | – |
| < 500 | O=C1NC(=S)N2Cc3c(c4ccccc4n3Cc3ccc(F)cc3)C[C@@H]12 [Compound E2, (S)-6-(4-fluorobenzyl)-3-thioxo-2,3,5,6,11,11a-hexahydro-1H-imidazo[1′,5′:1,6]pyrido[3,4-b]indol-1-one] | – | – |
| < 500 | O=C1NC(=S)N2Cc3c(c4cccnc4n3Cc3ccc(F)cc3)CC12 (centres unmarked) [Compound E3] | – | – |

Continued, molecule first:

| SMILES | IC50 [1] [nM] | decreases in the testes weight (as a percentage of body weight) [2] | decreases in testes weight [2] |
| --- | --- | --- | --- |
| O=C(O)CCCN1C(=O)C2Cc3c(n(Cc4ccc(F)cc4)c4ccccc34)CN2C1=O (racemic) [Compound 1-1, 4-(6-(4-fluorobenzyl)-1,3-dioxo-11,11a-dihydro-1H-imidazo[1′,5′:1,6]pyrido[3,4-b]indol-2(3H,5H,6H)-yl)butanoic acid] | < 500 | no decreases in the testes weight | did not exhibit the same effects |
| O=C1NC(=O)N2Cc3c(c4ccccc4n3Cc3ccc(F)cc3)CC12 (racemic) [Compound 1-15, 6-(4-fluorobenzyl)-5,6,11,11a-tetrahydro-1H-imidazo[1′,5′:1,6]pyrido[3,4-b]indole-1,3(2H)-dione] | < 500 | no decreases in the testes weight | did not exhibit the same effects |
| O=C(O)CCN1C(=O)[C@@H]2Cc3c(n(Cc4ccc(F)cc4)c4ccccc34)CN2C1=O [Compound 1-5, (S)-3-(6-(4-fluorobenzyl)-1,3-dioxo-5,6,11,11a-tetrahydro-1H-imidazo[1′,5′:1,6]pyrido[3,4-b]indol-2(3H)-yl)propanoic acid] | – | – | undesired decreases in testes weight |
| O=C(CCN1C(=O)[C@@H]2Cc3c(n(Cc4ccc(F)cc4)c4ccccc34)CN2C1=O)NS(=O)(=O)c1ccccc1 [Compound 1-143, (S)-3-(6-(4-fluorobenzyl)-1,3-dioxo-11,11a-dihydro-1H-imidazo[1′,5′:1,6]pyrido[3,4-b]indol-2(3H,5H,6H)-yl)-N-(phenylsulfonyl)propanamide] | < 500 | – | – |
